Assay results from publication PMC6458995, “MAP4K4 Inhibition Promotes Survival of Human Stem Cell-Derived Cardiomyocytes and Reduces Infarct Size In Vivo” (Cell Stem Cell, 2019).

Columns and labels:
Assay in all cases: Dundee kinase panel
Format in all cases: biochemical
Conditions in all cases: for remaining activity at 1 µM: read-out: residual activity
WNK1 = molecular target: T1, WNK1 (Homo sapiens, UniProt Q9H4A3)
T1 construct: lines 1-140) and Reaction Biology
Method: (§1) Compounds were screened at 1 μM. For key hits, pIC50 values were then determined by HTRF as above. […] Stability in mouse and human liver microsomes was determined by Cyprotex.

SmMLCK = molecular target: T2, SmMLCK (Homo sapiens, UniProt Q15746)
T2 construct: lines 1-140) and Reaction Biology
T2 sequence (Q15746 923-1914): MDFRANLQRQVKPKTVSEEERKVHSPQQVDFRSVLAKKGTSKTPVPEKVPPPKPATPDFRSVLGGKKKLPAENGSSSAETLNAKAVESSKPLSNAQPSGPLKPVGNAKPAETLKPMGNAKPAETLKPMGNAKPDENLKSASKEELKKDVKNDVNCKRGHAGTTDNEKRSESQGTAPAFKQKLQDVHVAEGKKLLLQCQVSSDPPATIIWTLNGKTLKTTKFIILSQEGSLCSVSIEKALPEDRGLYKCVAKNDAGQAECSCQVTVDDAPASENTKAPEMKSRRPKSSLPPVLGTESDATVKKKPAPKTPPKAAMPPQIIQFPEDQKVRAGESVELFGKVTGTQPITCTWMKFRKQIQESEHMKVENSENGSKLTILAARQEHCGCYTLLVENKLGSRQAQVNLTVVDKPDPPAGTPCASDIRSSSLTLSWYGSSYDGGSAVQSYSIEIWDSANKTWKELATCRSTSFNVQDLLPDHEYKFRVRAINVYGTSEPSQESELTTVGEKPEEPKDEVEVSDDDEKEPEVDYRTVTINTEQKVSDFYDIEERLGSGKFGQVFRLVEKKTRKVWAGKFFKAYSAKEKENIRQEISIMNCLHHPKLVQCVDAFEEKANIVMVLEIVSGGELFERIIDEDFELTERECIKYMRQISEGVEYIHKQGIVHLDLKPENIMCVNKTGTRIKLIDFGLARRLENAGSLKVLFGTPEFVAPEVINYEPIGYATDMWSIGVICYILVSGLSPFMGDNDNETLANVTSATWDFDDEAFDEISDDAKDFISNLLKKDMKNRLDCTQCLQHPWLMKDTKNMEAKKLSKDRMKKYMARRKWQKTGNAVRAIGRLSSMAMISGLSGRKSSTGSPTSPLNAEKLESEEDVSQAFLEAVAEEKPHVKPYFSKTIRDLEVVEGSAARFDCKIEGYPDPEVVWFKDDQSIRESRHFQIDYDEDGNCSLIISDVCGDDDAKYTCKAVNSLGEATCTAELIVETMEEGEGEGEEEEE
Method: as §1

DYRK3 = molecular target: T3, DYRK3 (Homo sapiens, UniProt O43781)
T3 construct: lines 1-140) and Reaction Biology
T3 sequence (O43781 1-588): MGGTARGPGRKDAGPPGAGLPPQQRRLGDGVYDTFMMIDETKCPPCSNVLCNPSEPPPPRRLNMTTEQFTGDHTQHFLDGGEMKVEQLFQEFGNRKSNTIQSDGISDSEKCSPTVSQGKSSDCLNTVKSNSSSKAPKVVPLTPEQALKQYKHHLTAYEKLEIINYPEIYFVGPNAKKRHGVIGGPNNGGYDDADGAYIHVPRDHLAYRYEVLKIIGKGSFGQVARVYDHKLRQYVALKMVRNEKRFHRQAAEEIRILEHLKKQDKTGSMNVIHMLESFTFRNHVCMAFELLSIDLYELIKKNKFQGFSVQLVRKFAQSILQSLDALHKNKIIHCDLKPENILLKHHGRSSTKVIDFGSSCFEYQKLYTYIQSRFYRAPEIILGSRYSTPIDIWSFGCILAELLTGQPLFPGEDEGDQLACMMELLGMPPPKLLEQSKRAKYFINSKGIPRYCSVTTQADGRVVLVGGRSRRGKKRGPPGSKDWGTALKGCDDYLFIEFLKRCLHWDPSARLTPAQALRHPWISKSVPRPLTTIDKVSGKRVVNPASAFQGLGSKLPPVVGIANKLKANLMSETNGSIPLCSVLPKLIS
Method: as §1

BRK = molecular target: T4, BRK (Homo sapiens, UniProt Q13882)
T4 construct: lines 1-140) and Reaction Biology
T4 sequence (Q13882 whole entry): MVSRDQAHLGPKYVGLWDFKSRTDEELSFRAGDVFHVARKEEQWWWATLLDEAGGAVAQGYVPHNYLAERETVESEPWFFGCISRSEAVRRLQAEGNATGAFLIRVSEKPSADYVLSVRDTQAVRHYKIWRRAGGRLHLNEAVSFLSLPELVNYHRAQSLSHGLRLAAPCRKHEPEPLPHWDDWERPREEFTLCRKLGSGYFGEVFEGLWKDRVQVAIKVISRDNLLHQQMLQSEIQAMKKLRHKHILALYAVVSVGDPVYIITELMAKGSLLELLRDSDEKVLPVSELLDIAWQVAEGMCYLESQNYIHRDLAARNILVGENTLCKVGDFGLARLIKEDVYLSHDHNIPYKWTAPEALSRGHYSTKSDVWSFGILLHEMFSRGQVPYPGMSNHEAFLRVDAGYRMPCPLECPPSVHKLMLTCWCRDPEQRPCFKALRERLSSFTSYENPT
Method: as §1

HIPK3 = molecular target: T5, HIPK3 (Homo sapiens, UniProt Q9H422)
T5 construct: lines 1-140) and Reaction Biology
T5 sequence (Q9H422 whole entry): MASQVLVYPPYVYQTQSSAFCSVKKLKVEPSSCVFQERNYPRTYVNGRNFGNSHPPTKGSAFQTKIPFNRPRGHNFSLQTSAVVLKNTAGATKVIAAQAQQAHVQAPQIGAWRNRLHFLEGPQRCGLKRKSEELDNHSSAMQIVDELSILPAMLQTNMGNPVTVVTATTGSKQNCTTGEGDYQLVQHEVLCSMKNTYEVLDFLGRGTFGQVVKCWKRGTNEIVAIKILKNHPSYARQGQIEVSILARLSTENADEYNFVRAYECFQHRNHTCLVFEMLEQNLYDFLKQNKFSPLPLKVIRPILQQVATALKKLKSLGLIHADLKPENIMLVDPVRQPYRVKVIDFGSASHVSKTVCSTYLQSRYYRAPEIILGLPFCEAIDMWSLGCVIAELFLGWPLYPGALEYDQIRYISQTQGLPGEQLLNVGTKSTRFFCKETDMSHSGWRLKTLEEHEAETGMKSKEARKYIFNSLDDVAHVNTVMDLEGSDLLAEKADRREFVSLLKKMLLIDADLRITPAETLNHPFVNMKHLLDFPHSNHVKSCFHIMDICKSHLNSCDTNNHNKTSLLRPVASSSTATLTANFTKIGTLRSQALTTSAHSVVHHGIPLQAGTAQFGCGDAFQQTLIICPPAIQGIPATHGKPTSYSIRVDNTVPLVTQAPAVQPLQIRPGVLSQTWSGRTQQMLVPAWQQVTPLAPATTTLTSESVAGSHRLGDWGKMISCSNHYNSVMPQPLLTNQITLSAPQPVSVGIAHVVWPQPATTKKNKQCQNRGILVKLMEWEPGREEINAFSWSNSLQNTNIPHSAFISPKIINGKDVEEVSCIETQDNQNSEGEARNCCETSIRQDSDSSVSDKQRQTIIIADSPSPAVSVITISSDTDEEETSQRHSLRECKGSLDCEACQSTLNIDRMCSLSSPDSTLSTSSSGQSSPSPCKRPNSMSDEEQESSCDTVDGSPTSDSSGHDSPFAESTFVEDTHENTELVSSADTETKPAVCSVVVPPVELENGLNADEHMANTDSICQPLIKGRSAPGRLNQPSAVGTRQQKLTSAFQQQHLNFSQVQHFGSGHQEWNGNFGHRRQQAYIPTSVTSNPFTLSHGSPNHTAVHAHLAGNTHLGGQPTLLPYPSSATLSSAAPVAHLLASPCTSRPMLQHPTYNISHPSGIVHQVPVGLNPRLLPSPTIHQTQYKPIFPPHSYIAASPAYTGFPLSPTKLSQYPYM
Method: as §1

PKBa = molecular target: T6, PKBa (Homo sapiens, UniProt P31749)
T6 construct: lines 1-140) and Reaction Biology
Method: as §1

TTBK2 = molecular target: T7, TTBK2 (Homo sapiens, UniProt Q6IQ55)
T7 construct: lines 1-140) and Reaction Biology
Method: as §1

VEGFR = molecular target: T8, VEGFR (Homo sapiens, UniProt P17948)
T8 construct: lines 1-140) and Reaction Biology
T8 sequence (P17948 784-1338 limits assumed): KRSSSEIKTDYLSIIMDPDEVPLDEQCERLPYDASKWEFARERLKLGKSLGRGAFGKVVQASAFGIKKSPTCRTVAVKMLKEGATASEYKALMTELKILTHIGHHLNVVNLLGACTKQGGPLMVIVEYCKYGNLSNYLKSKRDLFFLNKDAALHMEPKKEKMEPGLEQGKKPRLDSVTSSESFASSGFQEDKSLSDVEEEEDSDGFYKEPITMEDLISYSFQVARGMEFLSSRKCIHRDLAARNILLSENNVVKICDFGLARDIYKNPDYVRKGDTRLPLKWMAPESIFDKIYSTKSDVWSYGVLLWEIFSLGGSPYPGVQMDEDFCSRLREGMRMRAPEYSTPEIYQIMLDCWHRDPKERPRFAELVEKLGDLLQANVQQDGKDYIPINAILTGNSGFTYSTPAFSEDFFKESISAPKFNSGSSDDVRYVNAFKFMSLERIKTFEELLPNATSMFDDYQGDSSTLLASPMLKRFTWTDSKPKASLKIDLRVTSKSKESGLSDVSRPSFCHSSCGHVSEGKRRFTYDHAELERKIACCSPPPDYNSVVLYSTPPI
Method: as §1

SRPK1 = molecular target: T9, SRPK1 (Homo sapiens, UniProt Q96SB4)
T9 construct: lines 1-140) and Reaction Biology
T9 sequence (Q96SB4 whole entry): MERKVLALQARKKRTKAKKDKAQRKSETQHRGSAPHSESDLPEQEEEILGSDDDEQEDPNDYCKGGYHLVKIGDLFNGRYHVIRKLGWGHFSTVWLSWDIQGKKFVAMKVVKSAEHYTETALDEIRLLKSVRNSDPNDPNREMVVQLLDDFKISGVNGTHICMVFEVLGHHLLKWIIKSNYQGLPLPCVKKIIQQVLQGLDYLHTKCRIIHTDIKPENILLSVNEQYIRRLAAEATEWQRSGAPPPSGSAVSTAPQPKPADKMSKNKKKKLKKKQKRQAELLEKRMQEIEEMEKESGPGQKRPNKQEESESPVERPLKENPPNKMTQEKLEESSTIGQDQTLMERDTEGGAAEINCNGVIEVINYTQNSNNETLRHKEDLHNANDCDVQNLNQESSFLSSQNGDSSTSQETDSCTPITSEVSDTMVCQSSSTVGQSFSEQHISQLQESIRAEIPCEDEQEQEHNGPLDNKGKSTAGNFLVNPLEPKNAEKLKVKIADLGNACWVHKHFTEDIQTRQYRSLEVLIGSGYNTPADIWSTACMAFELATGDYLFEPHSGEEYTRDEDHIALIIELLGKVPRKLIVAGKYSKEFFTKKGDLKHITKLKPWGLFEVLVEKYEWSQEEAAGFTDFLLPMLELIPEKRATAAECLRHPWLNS
Method: as §1

JNK3 = molecular target: T10, JNK3 (Homo sapiens, UniProt P53779)
T10 construct: lines 1-140) and Reaction Biology
Method: as §1

CAMK1 = molecular target: T11, CAMK1 (Homo sapiens, UniProt Q14012)
T11 construct: lines 1-140) and Reaction Biology
T11 sequence (Q14012 whole entry): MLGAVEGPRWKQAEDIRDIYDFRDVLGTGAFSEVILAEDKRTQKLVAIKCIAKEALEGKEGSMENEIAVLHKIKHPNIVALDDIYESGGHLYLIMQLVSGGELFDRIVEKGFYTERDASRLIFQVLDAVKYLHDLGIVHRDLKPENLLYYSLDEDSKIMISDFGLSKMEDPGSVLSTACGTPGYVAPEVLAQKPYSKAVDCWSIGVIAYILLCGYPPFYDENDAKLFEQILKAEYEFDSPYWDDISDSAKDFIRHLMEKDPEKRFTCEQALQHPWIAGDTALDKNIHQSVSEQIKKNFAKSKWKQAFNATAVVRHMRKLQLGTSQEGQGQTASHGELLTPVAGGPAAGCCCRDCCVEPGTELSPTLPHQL
Method: as §1

TAO1 = molecular target: T12, TAO1 (Homo sapiens, UniProt Q7L7X3)
T12 construct: lines 1-140) and Reaction Biology
T12 sequence (Q7L7X3 1-1001): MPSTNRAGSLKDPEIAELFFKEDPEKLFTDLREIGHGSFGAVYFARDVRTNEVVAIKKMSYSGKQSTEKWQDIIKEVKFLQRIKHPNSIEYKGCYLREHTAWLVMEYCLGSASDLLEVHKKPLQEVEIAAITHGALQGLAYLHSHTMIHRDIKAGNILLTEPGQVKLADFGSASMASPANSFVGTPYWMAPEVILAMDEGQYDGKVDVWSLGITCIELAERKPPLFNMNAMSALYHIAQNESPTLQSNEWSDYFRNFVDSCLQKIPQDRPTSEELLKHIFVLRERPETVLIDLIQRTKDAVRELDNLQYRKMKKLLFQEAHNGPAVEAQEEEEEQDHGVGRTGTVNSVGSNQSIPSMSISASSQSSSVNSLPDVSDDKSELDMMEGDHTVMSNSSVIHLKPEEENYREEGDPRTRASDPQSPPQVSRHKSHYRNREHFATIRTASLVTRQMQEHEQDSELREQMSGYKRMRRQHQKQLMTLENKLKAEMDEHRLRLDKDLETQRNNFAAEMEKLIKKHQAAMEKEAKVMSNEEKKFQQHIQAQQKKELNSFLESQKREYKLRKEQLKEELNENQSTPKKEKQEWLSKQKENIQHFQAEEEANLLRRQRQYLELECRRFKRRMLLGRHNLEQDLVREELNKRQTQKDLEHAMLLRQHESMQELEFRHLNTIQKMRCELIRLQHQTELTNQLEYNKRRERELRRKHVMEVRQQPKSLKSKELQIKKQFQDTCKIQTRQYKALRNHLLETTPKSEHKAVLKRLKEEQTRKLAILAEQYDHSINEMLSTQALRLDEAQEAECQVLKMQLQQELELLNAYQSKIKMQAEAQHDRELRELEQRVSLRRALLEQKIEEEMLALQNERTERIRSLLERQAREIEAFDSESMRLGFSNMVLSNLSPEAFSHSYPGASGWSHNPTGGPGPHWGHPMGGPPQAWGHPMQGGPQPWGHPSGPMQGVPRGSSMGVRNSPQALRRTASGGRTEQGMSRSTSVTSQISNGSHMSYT
Method: as §1

TRKA = molecular target: T13, TRKA (Homo sapiens, UniProt P04629)
T13 construct: lines 1-140) and Reaction Biology
T13 sequence (P04629 33-796): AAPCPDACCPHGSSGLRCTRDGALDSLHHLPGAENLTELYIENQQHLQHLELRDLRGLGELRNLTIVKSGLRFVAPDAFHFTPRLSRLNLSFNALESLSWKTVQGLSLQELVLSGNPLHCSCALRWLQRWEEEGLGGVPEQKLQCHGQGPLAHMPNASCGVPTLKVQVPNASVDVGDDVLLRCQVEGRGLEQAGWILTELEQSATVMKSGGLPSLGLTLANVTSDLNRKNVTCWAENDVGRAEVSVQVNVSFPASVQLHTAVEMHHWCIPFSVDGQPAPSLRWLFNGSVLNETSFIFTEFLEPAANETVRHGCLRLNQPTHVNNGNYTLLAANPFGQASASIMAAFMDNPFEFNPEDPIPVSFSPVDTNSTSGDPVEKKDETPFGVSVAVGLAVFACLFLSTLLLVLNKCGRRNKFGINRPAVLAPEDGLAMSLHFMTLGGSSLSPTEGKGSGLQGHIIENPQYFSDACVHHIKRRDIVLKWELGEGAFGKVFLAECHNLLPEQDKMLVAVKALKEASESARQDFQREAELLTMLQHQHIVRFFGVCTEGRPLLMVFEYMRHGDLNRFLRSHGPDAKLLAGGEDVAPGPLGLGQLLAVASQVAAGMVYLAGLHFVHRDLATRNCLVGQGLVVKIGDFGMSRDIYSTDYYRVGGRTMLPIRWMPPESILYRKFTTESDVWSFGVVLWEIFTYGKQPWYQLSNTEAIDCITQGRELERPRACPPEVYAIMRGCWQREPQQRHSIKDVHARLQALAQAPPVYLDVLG
Method: as §1

LCK = molecular target: T14, LCK (Homo sapiens, UniProt P06239)
T14 construct: lines 1-140) and Reaction Biology
T14 sequence (P06239 whole entry): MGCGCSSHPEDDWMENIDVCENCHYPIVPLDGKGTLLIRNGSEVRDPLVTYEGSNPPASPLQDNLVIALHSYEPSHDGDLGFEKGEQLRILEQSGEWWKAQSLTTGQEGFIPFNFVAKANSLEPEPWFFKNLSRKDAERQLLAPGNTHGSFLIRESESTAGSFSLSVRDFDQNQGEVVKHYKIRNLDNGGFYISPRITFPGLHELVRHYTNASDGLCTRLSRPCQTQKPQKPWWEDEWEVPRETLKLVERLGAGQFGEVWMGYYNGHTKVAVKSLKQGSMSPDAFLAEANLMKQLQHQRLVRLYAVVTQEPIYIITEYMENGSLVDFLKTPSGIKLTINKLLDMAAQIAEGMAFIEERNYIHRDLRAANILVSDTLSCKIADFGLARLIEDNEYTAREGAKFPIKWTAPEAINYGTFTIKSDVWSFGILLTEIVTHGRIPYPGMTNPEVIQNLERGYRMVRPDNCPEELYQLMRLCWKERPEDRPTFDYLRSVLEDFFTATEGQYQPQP
Method: as §1

`O=C1Cc2c([nH]c3ccc(Br)cc23)-c2ccccc2N1` [Kenpaullone] showed a remaining activity at 1 µM (WNK1) of 92%, a remaining activity at 1 µM (SmMLCK) of 97% and a remaining activity at 1 µM (DYRK3) of 72%. It also gave a remaining activity at 1 µM (BRK) of 97%, a remaining activity at 1 µM (HIPK3) of 87% and a remaining activity at 1 µM (PKBa) of 95%. For the same molecule, the remaining activity at 1 µM (TTBK2) was 95%, the remaining activity at 1 µM (VEGFR) was 30% and the remaining activity at 1 µM (SRPK1) was 36%. The remaining activity at 1 µM (JNK3) was 87%, the remaining activity at 1 µM (CAMK1) was 103% and the remaining activity at 1 µM (TAO1) was 93%.

`O=C1Nc2ccc(I)cc2/C1=C/c1cc(Br)c(O)c(Br)c1` [GW5074] was tested, and the remaining activity at 1 µM (WNK1) was 94%, the remaining activity at 1 µM (SmMLCK) was 40% and the remaining activity at 1 µM (DYRK3) was 14%. For the same molecule, the remaining activity at 1 µM (TRKA) was 51%, the remaining activity at 1 µM (BRK) was 77% and the remaining activity at 1 µM (HIPK3) was 25%. It also gave a remaining activity at 1 µM (PKBa) of 93%, a remaining activity at 1 µM (TTBK2) of 83% and a remaining activity at 1 µM (VEGFR) of 29%. It also gave a remaining activity at 1 µM (SRPK1) of 8%, a remaining activity at 1 µM (JNK3) of 65% and a remaining activity at 1 µM (CAMK1) of 70%. For the same molecule, the remaining activity at 1 µM (TAO1) was 96% and the remaining activity at 1 µM (LCK) was 58%.

`Nc1ncc(C(=O)NC2CN(C(=O)C3CC3)C2)c2ccc(-c3cccc(F)c3)nc12` [GNE-495] gave a residual activity (WNK1; 1 μM) of 102%, a residual activity (SmMLCK; 1 μM) of 68% and a residual activity (DYRK3; 1 μM) of 83%. It also gave a residual activity (TRKA; 1 μM) of 68%, a residual activity (BRK; 1 μM) of 94% and a residual activity (HIPK3; 1 μM) of 81%. It also gave a residual activity (PKBa; 1 μM) of 105%, a residual activity (TTBK2; 1 μM) of 116% and a residual activity (VEGFR; 1 μM) of 92%. The residual activity (SRPK1; 1 μM) was 105%, the residual activity (JNK3; 1 μM) was 73% and the residual activity (CAMK1; 1 μM) was 93%. The residual activity (TAO1; 1 μM) was 75% and the residual activity (LCK; 1 μM) was 104%.

In the case of `Oc1ncnc2c1c(-c1ccccc1)cn2-c1ccccc1` [F1386-0303, 5,7-diphenyl-7H-pyrrolo[2,3-d]pyrimidin-4-ol], the remaining activity at 1 µM (WNK1) is reported as 109%, the remaining activity at 1 µM (SmMLCK) is reported as 76% and the remaining activity at 1 µM (DYRK3) is reported as 101%. The remaining activity at 1 µM (TRKA) was 89%, the remaining activity at 1 µM (BRK) was 108% and the remaining activity at 1 µM (HIPK3) was 93%. The remaining activity at 1 µM (PKBa) was 117%, the remaining activity at 1 µM (TTBK2) was 99% and the remaining activity at 1 µM (VEGFR) was 73%. The remaining activity at 1 µM (SRPK1) was 112%, the remaining activity at 1 µM (JNK3) was 92% and the remaining activity at 1 µM (CAMK1) was 97%. It also gave a remaining activity at 1 µM (TAO1) of 98% and a remaining activity at 1 µM (LCK) of 112%.

With `COCCOc1ccc(-c2cn(-c3ccccc3)c3nc[nH]c(=O)c23)cc1` [DMX-5804, 5-[4-(2-methoxy-ethoxy)-phenyl]-7-phenyl-3,7-dihydro-pyrrolo[2,3-d]pyrimidin-4-one] the remaining activity at 1 µM (WNK1) was 106%, the remaining activity at 1 µM (SmMLCK) was 89% and the remaining activity at 1 µM (DYRK3) was 128%. It also gave a remaining activity at 1 µM (TRKA) of 74%, a remaining activity at 1 µM (BRK) of 88% and a remaining activity at 1 µM (HIPK3) of 103%. For the same molecule, the remaining activity at 1 µM (PKBa) was 116%, the remaining activity at 1 µM (TTBK2) was 108% and the remaining activity at 1 µM (VEGFR) was 27%. The remaining activity at 1 µM (SRPK1) was 91%, the remaining activity at 1 µM (JNK3) was 127% and the remaining activity at 1 µM (CAMK1) was 114%. It also gave a remaining activity at 1 µM (TAO1) of 120% and a remaining activity at 1 µM (LCK) of 109%.
